Common to all, as to test: inhibition of tumour cell growth, NCI panel, 48 h
Experiment [1] has as its system A549 NSCLC.
Experiment [2] concerns HCT-116 colon.
In experiment [3] the test system is HS 578T breast.
Experiment [4] relates to HT29 colon.
The subject of experiment [5] is K-562 leukemia.
The test system of experiment [6] is MDA-MB-231 breast.
The test system of experiment [7] is OVCAR-4 ovarian.
The subject of experiment [8] is UACC-257 melanoma.
Experiment [9] relates to NCI-H522 lung.
Experiment [10] concerns SNB-19 CNS.

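Protocol summary: plate cells (96-well), add compound at 5 concentrations, incubate 48 h, interpolate endpoints linearly. The concentration for 50% growth inhibition is given as GI50. TGI marks complete inhibition of growth.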

In the case of `N#CC1Nc2ccccc2[C@@H](O)C1O` (stereo partly drawn), the TGI in [1], in experiment [2], in [3], in [4], in [5] and in [6] was more than 100 µM throughout. Moreover, the TGI in experiment [7] and in [8] was more than 100 µM throughout.
Take `Cc1cn2c(/C=C3/C(=O)Nc4ccccc43)c(-c3ccc(Cl)cc3)nc2s1`: the GI50 is 7.52 µM in [1]; 9.26 µM in experiment [3]; 9.23 µM in [4]; 46.5 µM in experiment [5]; 2.34 µM in [6]; 9.01 µM in experiment [9]. The GI50 in experiment [10] was 7.01 µM; in experiment [8], 10.5 µM. For the same compound, the TGI was 16 µM in experiment [1]; 31.9 µM in experiment [3]; 16.2 µM in experiment [4]; more than 50 µM in experiment [5]; 9.45 µM in [6]; 19.5 µM in experiment [9]. The TGI in experiment [10] came to 13.5 µM; in experiment [8] it was 27.8 µM.
As for `CC(=O)Oc1ccccc1C(=O)N=C1[Se]CCCN1C(=O)c1ccccc1OC(C)=O`, the GI50 in experiment [1] is 1.85 µM; in [2], 2.1 µM; in experiment [3] it was 2.07 µM; in experiment [4], 3.15 µM; in experiment [5], 3.32 µM; in [6] it was 2.22 µM. The values for the GI50 in experiment [9] and in [7] were 1.59 µM and 1.93 µM, respectively. The TGI in experiment [1] came to 3.69 µM; in experiment [2] it was 5.95 µM; in experiment [3], 6.32 µM; in [4], 8.73 µM; in experiment [5], 12.6 µM; in experiment [6], 5.02 µM. Moreover, the TGI amounted to 3.42 µM in experiment [9] and 5.57 µM in experiment [7].
On to `Cc1ccc(N(CSc2ccc(Cl)cc2)CSc2ccc(Cl)cc2)cc1`, for which the GI50 in experiment [1] was 0.448 µM; in experiment [2] it was 1.52 µM; in [4], 1.85 µM; in [6] it was 0.404 µM; in [9] it was 1.49 µM; in [7], 2.78 µM. The GI50 was 1.48 µM in [10] and 3.72 µM in [8]. For the same compound, the TGI in experiment [1] was more than 100 µM; in experiment [2], 10.9 µM; in [4], 24.1 µM; in [6], 2.5 µM; in experiment [9] it was 3.18 µM; in [7], 31.4 µM. In addition, the TGI is 19.8 µM in [10] and more than 100 µM in [8].
With `CC(=O)Oc1ccc(Nc2c3ccccc3nc3ccccc23)cc1`, the GI50 in experiment [1] is 0.365 µM; in [2] it was 0.613 µM; in experiment [3], 0.435 µM; in [4], 1.1 µM; in experiment [5] it was 1.45 µM; in experiment [6], 1.7 µM. In addition, the GI50 in experiment [7] was 1.74 µM; in experiment [10], 1.86 µM; in experiment [8], 1.51 µM. Moreover, the TGI in experiment [1] is 1.87 µM; in [2], 4.11 µM; in experiment [3] it was 3.19 µM; in experiment [4], 3.53 µM; in experiment [5], more than 100 µM; in [6], 6.23 µM. The TGI in experiment [7] was 5.93 µM; in [10], 11.9 µM; in experiment [8] it was 4.31 µM.
Turning to `O=C1CSC(Cc2nc3ccccc3[nH]2)=N1`, the TGI in [1] is 79.5 µM; in [2], 27.6 µM; in [4] it was more than 100 µM; in experiment [5], more than 100 µM; in [9], 40.4 µM; in [7] it was 41.6 µM. The figures for the TGI in experiment [10] and in experiment [8] were 80.8 µM and more than 90.7 µM, respectively.
With `O/N=C\c1c(O)ccc2ccccc12`, the TGI in experiment [1], in experiment [2], in [3], in [4], in experiment [5] and in experiment [6] was more than 100 µM throughout. The TGI in [10] and in experiment [8] was more than 100 µM each time.
For `CC(C)(C)N1CC2(CCCCC2)C1=O`, the TGI in experiment [1], in experiment [2], in [4], in experiment [5], in experiment [9] and in [7] was more than 100 µM in each case. Also, the TGI in experiment [10] and in experiment [8] was more than 100 µM throughout.
Regarding `CSC1(CC(=O)N(C)C)C(=O)Nc2ccccc21` (stereo not drawn), the TGI in experiment [1], in [2], in experiment [3], in experiment [4], in experiment [5] and in experiment [7] was more than 100 µM each time. In addition, the TGI in experiment [10] and in experiment [8] was more than 100 µM throughout.
In the case of `CCOC(=O)[C@H](CCCNC(=O)OC(C)(C)C)NCc1ccc(OC)c(OC)c1`, the TGI in [1], in [2], in experiment [4], in experiment [5], in experiment [9] and in experiment [7] was more than 100 µM in each case. Moreover, the TGI in experiment [10] and in experiment [8] was more than 100 µM each time.
Turning to `CCOC(=O)c1[nH]c(COC(C)=O)c(CCCOC(C)=O)c1CCCOC(C)=O`, the TGI in [1] was more than 100 µM; in [2] it was more than 100 µM; in experiment [4], more than 100 µM; in [5], more than 100 µM; in experiment [9], 52.5 µM; in experiment [7], more than 100 µM. The TGI in experiment [10] and in experiment [8] was more than 100 µM in each case.
Consider `COC(=O)/C=C/C1C(C(=O)OC)C2(C(=O)OC)CCC1(C(=O)OC)N2` (stereo not drawn), for which the TGI in experiment [1], in experiment [2], in [4], in [5], in experiment [9] and in experiment [7] was more than 100 µM each time. In addition, the TGI in [10] and in experiment [8] was more than 100 µM each time.
Regarding `CCCCCCCCCc1cc(=O)c2c(O)cccc2o1`, the TGI in [1] is more than 100 µM; in [2], more than 100 µM; in experiment [4] it was more than 10 µM; in experiment [5] it was more than 100 µM; in [9], more than 100 µM; in [7], more than 100 µM. Moreover, the TGI in experiment [10] and in [8] was more than 100 µM each time.
On to `N#CC(/C(=N/NC(=O)C(=O)NN)C(=O)NC12CC3CC(CC(C3)C1)C2)c1ccccc1` (stereo not drawn), for which the TGI in experiment [1], in experiment [2], in [4], in experiment [5], in experiment [9] and in [7] was more than 100 µM throughout. The TGI in experiment [10] and in experiment [8] was more than 100 µM in each case.
Consider `CCOC(=O)C1=C(C)N(N)C(=S)NC1c1ccc(C)cc1` (stereo not drawn), for which the GI50 in [1] is 94.6 µM; in [2], 65.3 µM; in experiment [4] it was 26 µM; in experiment [5], 21.6 µM; in experiment [6], 1.2 µM; in [9], 18.2 µM. In addition, the GI50 was 66 µM in [7], 73 µM in experiment [10] and 36.2 µM in experiment [8]. Moreover, the TGI in experiment [1], in [2], in experiment [4], in experiment [5], in experiment [6] and in experiment [9] was more than 100 µM throughout. Moreover, the TGI in experiment [7], in [10] and in experiment [8] was more than 100 µM in each case.
As to `O=C(/C=C/c1c(O)ccc2ccccc12)c1ccc2ccccc2c1`, the TGI in [1], in experiment [2], in [4], in experiment [5], in experiment [9] and in experiment [7] was more than 100 µM each time. For the same compound, the TGI in experiment [10] and in [8] was more than 100 µM in each case.
Take `O=c1[nH]c2cc(Cl)ccc2n1C1CCN(CCCC(c2ccc(F)cc2)c2ccc(F)cc2)CC1`: the GI50 in experiment [1] was 1.65 µM; in experiment [2] it was 1.46 µM; in [4], 0.766 µM; in experiment [5], 2.98 µM; in experiment [6], 1.68 µM; in [9], 1.82 µM. Moreover, the GI50 in experiment [7] was 1.51 µM; in experiment [10], 1.83 µM; in [8] it was 1.56 µM. In addition, the TGI in [1] was 3.39 µM; in experiment [2], 2.87 µM; in experiment [4], 2.16 µM; in experiment [5] it was more than 100 µM; in experiment [6], 3.12 µM; in [9], 3.64 µM. Further, the TGI in experiment [7] was 2.9 µM; in [10], 3.79 µM; in [8], 3.04 µM.
Take `O=C(CCC(=O)Nc1cccc(Cl)c1)CC(=O)c1ccc(Cl)cc1`: the TGI in experiment [1], in experiment [2], in experiment [4], in experiment [5], in experiment [9] and in experiment [7] was more than 100 µM in each case. Further, the TGI in experiment [10] and in [8] was more than 100 µM each time.

The values are drawn from PubChem BioAssay (NCI).
